pKd: −log10 of the molar value. Like-named read-outs stand apart in the source and are kept apart here.
Tests used:
[1] = test system: SARS-CoV-2 (USA-WA-1/2020); assay type: in vivo, K18-hACE2 mice; settings: for Survival (mice survived): BID thereafter, until day 10
[2] = test system: hepatic endolysosomal capacity; assay: Murine model of hepatic lysosomal activity (dextran cascade blue uptake); assay type: in vivo, C57BL/6 mice; settings: 50 mg/kg i.p. daily for 4 days
DCAF7 = DCAF7 (Homo sapiens, UniProt P61962); assay: Microscale thermophoresis (MST) of DCAF7 and BC18630; settings: read-out: Kd (MST binding coefficient)
Vero E6 cells = settings: read-out: Cytotoxicity CC50 Vero E6 MEM

Chain of DCAF7 (P61962 whole entry): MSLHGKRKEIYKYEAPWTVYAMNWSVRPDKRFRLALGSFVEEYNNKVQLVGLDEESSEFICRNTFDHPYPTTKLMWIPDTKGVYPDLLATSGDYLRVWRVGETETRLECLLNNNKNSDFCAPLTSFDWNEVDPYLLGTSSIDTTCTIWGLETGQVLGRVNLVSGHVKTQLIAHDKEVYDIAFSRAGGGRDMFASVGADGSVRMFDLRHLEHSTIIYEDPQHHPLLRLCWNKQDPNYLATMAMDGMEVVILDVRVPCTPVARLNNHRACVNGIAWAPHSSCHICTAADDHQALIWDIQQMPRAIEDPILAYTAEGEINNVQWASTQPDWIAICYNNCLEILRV

Cl.c1ccc2c(Nc3ccc4[nH]ccc4c3)nc(-c3ccncc3)nc2c1 [BC18630, N-1H-indol-5-yl-2-pyridin-4-ylquinazolin-4-amine hydrochloride]
Viral titer in mouse lungs ([1]; 3 dpi, both treatments (pre and post), 40 mg/kg oral BID): substantialy decreased
TFEB IHC signal in the airways ([1]; mouse lung, 6 dpi): increase
Survival (mice survived) ([1]; post-treat: 40 mg/kg 12 hours after infection): 2/5
Survival (mice survived) ([1]; pre-treat: 40 mg/kg 24 hours before infection): 3/5
Mouse hepatic endolysosomal capacity [2]: increased
pKd (DCAF7): ~5.36
CC50 (Vero E6 cells): > 10 µM
